Reference: ChEMBL document CHEMBL6121021, “Design and Synthesis of Topoisomerases-Histone Deacetylase Dual Targeted Quinoline-Bridged Hydroxamates as Anticancer Agents” (J Med Chem, 2025)
Calls of active or inactive are those of the source. No cut-off for these calls is given here.

Tests used:
[1] = test system: HT-29; assay: cells; type: functional, cell-based; settings: Homo sapiens, HT-29, 48 h
[2] = test system: A549; assay: Induction of ROS generation in human A549 cells incubated for 48 hrs by Cell Rox red staining based flow cytometry; type: functional
[3] = test system: A549; assay: Anti-cancer activity against human A549 3D cell culture model at sub- IC50 incubated for 17 days with replacement of medium containing compound on every third day; type: functional, cell-based; settings: time 17.0 day
[4] = test system: NCI-H1299; assay: cells; type: functional, cell-based; settings: Homo sapiens, NCI-H1299, 48 h
[5] = test system: A549; assay: cells; settings: Homo sapiens, A549, 48 h
[6] = test system: MDA-MB-231; assay: Anti-cancer activity against human MDA-MB-231 cells assessed as increase in let7a mRNA level by qPCR analysis; type: functional, cell-based
[7] = target: Histone deacetylase 1 (Homo sapiens, UniProt Q13547); assay: Inhibition of HDAC1 extracted from human A549 nucleus incubated for 1 hr by fluorometric assay; type: cell-free
[8] = target: T1, Histone deacetylase 8 (Homo sapiens, UniProt Q9BY41); assay: Inhibition of HDAC8 (unknown origin) by fluorometric assay
T1 sequence (Q9BY41 whole entry): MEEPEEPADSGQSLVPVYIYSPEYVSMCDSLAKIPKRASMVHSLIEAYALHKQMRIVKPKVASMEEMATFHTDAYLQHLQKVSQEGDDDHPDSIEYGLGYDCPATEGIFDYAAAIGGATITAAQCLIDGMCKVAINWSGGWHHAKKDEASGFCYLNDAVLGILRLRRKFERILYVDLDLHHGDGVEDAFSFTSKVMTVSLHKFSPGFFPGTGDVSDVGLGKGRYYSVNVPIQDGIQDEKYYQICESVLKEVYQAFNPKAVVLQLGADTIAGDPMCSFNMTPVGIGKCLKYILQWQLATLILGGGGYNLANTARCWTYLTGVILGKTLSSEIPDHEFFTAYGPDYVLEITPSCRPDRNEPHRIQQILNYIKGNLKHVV

[9] = test system: Supercoiled DNA; assay: Binding affinity to supercoiled DNA (unknown origin) assessed as DNA intercalation measured after 30 mins by gel electrophoresis; type: nucleic-acid assay
[10] = target: DNA topoisomerase 2-alpha (Homo sapiens, UniProt P11388); assay: Inhibition of human Topo II-alpha-mediated decatenation of kDNA at 100 uM incubated for 30 mins
[11] = test system: A549; assay: Effect on mitochondrial membrane permeability in human A549 cells assessed as decrease in red to green fluorescence ratio at sub-IC50 incubated for 48 hrs by JC-1 staining based analysis; type: functional, cell-based
[12] = test system: A549; assay: Anti-cancer activity against human A549 3D cell culture model assessed as inhibition of 3D culture initiation at sub- IC50 incubated for 21 days with replacement of medium containing compound on every seventh day; type: functional, cell-based; settings: time 21.0 day
[13] = test system: MDA-MB-231; assay: cells; type: functional, cell-based; settings: Homo sapiens, MDA-MB-231, 48 h
[14] = target: T2, Protein deacetylase HDAC6 (Homo sapiens, UniProt Q9UBN7); assay: Inhibition of HDAC6 (unknown origin) using acetylated-peptide substrate by fluorometric assay
T2 sequence (Q9UBN7 whole entry): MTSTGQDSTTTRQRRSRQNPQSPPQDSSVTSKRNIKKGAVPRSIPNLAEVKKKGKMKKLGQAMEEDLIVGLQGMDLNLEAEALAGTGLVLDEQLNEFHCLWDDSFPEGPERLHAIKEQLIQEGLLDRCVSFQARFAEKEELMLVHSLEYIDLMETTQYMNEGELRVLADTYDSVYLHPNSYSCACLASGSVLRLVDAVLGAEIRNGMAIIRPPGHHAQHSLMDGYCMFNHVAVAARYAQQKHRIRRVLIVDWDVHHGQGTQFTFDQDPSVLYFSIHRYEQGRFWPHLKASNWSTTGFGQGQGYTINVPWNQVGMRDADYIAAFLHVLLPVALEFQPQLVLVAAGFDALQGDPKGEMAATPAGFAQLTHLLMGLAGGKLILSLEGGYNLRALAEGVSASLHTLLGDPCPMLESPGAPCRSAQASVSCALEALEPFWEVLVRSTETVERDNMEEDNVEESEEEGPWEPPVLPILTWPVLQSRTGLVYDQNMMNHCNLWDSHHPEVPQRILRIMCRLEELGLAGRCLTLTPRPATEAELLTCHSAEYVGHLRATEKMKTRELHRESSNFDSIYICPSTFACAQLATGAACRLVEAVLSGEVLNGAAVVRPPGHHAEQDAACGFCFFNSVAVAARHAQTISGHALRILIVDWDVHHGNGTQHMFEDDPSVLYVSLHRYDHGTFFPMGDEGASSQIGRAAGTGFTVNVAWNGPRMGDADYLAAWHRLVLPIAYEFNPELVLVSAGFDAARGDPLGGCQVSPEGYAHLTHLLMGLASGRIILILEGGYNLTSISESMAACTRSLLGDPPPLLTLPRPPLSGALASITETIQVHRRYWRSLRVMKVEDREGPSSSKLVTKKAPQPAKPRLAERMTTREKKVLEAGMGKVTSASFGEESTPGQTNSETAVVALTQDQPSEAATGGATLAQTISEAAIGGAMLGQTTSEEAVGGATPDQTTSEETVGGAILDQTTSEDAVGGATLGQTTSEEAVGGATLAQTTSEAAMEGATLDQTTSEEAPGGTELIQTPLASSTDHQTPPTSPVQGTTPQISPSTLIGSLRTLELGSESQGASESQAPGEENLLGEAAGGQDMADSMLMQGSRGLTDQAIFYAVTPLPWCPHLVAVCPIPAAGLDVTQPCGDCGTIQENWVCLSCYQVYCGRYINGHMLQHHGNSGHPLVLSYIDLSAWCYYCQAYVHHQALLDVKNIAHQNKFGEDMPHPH

[15] = test system: MCF7; assay: cells; type: functional, cell-based; settings: Homo sapiens, MCF7, 48 h
[16] = test system: A549; assay: Induction of ROS generation in human A549 cells incubated for 48 hrs by DCFH-DA staining based analysis; type: functional, cell-based

Histone deacetylase 1, sequence (Q13547 whole entry): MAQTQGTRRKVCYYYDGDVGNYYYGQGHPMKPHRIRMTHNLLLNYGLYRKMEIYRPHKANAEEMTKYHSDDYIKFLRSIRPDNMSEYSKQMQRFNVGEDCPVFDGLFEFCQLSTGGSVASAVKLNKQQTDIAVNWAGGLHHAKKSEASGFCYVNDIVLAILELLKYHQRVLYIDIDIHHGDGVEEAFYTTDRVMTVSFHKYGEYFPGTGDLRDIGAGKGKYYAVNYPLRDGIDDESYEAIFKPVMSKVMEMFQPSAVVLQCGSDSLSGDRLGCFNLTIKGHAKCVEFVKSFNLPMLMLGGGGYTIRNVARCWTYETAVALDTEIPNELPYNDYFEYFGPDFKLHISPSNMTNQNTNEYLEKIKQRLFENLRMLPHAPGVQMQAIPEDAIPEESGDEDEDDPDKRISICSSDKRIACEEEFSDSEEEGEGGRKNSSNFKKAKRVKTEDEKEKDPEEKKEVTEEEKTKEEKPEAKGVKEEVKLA
DNA topoisomerase 2-alpha, sequence (P11388 whole entry): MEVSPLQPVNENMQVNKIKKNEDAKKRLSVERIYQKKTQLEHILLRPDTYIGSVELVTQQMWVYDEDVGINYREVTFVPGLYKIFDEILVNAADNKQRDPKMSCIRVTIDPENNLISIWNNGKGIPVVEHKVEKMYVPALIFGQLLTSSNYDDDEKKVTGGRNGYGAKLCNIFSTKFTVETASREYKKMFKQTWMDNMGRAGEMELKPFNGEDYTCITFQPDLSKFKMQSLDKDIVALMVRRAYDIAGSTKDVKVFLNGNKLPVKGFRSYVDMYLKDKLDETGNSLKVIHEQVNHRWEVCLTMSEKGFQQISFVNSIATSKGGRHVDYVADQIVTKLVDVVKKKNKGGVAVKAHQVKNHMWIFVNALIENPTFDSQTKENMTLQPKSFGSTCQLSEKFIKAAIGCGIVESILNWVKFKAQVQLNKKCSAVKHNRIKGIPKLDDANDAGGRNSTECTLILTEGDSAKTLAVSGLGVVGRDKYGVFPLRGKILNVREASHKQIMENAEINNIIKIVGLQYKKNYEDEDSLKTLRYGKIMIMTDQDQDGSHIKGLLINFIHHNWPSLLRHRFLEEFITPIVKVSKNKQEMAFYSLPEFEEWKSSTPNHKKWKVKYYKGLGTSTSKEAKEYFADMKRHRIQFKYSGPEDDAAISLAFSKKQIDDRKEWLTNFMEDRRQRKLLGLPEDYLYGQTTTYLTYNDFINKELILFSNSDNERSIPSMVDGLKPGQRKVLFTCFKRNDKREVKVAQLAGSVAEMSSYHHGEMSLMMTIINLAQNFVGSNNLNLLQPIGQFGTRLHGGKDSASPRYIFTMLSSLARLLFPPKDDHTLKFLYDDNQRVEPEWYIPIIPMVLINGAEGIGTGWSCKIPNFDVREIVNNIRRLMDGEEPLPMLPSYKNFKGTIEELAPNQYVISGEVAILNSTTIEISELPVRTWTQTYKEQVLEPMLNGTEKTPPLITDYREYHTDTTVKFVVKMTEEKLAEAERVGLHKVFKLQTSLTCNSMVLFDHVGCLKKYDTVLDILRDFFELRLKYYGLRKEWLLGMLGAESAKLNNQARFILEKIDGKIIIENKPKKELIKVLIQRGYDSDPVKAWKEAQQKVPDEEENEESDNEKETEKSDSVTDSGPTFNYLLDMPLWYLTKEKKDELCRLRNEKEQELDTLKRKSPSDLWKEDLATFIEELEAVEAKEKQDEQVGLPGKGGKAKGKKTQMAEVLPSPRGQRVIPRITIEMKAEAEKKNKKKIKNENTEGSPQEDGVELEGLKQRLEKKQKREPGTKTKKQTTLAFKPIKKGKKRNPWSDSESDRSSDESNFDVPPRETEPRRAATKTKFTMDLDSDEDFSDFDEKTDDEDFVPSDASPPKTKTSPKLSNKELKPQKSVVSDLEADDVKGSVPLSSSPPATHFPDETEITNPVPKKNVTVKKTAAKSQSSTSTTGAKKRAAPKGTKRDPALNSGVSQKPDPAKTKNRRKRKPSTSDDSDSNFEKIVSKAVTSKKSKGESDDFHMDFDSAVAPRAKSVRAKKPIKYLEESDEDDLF

Row | SMILES | IC50 [1] | Activity [2] | Activity [3] | IC50 [4] | IC50 [5] | Activity [6] | IC50 [7] | IC50 [8] | Activity [9] | inhibition [10] | Activity [11] | inhibition [12] | IC50 [13] | IC50 [14] | IC50 [15] | Activity [16]
1 | COc1ccc(-c2ccc3ccc(OCCCCCCC(=O)NO)cc3n2)cc1I | 1860 nM | Active | Active; Exhibited Potent Effect | 1630 nM | 1970 nM | Active | 36.2 nM | > 500 nM | inactive | Active; Observed As More Active Than Etoposide | Not active; Result Signifies That Cell Death Induced Via Mitochondrial-Independent Pathways | Active | 1550 nM | 137 nM | 3020 nM | Active
2 | COc1ccc(-c2ccc3cc(OCCCCCC(=O)NO)ccc3n2)cc1 | 5760 nM | Active | Active; Exhibited Commendable Decrease In Mass Of 3D Sphere | 1680 nM | 702 nM | Active | 11.9 nM | > 500 nM | inactive | Active; Observed As More Active Than Etoposide | Active; Result Signifies That Cell Death Induced Via Mitochondrial-Dependent Pathways | Active | 879 nM | 22.9 nM | 1980 nM | Active
